Test [1] deals with CFTR (Homo sapiens, UniProt P13569). The class given is cell-based. The following applies: no LV.
In test [2] the test system is CFTR. The class given is cell-based, human. The following applies: no LV. The protocol:
To analyse the functionality of rSIV.F/HN-CFTR-expressed channels, CFTR-mediated chloride current was measured in an Ussing chamber using rSIV.F/HN-CFTR (vGM058) transduced ALI cultures. First, sodium channels (ENaC) were blocked using amiloride, followed by stimulation of CFTR using forskolin and the change in short circuit current (Δlsc) was calculated (both peak and plateau values). In some experiments, ivacaftor, a small molecule CFTR potentiator which increases channel open probability, was added for additional stimulation of CFTR current. Finally, the chloride current was blocked with CFTR-Inhibitor 172 (FIG. 3D).
To compare the functionality of vGM058 and vGM244, CFTR-mediated chloride current was measured in an Ussing chamber using class II ALI cultures transduced with both vGM058 and vGM244.
To analyse the functionality of rSIV.F/HN-CFTR-expressed channels, CFTR-mediated chloride current was measured in an Ussing chamber using rSIV.F/HN-CFTR (vGM244) transduced class II ALI cultures (Table 3).

[3] abbreviates: Table 2, Class I CFTR KO ALI, vGM058 study.
Setting [4] is: Table 4, Class I CFTR KO ALI, vGM244 study.
Where [5] appears, read: Table 1, Class II F508del/F508del ALI, vGM058 study.
Where [6] appears, read: Table 3, Class II F508del/F508del ALI, vGM244 study.

Like-named read-outs stand apart in the source and are kept apart here.

Sequence of CFTR (Homo sapiens, UniProt P13569) (P13569 whole entry): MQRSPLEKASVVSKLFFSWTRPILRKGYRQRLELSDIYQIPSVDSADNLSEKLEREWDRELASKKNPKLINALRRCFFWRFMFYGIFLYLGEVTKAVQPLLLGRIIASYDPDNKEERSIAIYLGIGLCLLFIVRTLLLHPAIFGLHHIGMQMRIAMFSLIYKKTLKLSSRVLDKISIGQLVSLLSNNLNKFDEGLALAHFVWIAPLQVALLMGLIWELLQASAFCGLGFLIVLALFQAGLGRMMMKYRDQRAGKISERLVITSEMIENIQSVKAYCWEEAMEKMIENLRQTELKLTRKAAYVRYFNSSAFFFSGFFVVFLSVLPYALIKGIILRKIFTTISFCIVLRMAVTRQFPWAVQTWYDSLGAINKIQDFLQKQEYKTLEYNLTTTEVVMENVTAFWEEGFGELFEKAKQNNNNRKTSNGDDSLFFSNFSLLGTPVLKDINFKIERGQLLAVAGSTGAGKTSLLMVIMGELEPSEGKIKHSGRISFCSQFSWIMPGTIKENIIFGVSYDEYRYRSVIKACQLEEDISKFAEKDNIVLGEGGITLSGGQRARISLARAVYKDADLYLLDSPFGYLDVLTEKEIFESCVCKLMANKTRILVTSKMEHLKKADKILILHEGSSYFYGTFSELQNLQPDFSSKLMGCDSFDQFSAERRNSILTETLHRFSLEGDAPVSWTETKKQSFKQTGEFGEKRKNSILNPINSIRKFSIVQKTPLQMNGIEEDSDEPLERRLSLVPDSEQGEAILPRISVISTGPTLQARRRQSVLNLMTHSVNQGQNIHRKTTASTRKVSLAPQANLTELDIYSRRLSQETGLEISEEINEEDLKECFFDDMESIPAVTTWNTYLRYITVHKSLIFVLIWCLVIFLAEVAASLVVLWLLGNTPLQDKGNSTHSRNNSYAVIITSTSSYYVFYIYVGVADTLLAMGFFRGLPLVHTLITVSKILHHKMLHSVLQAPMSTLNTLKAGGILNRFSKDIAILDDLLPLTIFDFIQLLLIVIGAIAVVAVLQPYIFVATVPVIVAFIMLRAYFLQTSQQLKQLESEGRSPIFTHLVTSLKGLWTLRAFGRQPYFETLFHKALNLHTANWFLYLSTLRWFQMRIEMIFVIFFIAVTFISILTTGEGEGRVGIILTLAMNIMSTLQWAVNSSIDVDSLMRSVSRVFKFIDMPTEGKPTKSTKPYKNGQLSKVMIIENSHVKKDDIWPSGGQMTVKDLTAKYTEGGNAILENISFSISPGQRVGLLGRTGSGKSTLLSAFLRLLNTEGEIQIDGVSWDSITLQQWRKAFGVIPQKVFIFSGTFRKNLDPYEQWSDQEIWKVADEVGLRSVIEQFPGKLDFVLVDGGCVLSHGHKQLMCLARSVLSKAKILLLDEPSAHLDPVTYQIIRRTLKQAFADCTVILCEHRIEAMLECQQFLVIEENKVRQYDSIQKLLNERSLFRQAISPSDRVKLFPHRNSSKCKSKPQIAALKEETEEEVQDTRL

For `CC(C)(C)c1cc(C(C)(C)C)c(NC(=O)c2c[nH]c3ccccc3c2=O)cc1O` [Iva, ivacaftor], the ΔCFTR-inh172peak is listed as −3.0 ± 0.2 at CFTR [1] (setting [3]), −0.2 ± 0.2 at CFTR [1] (setting [4]), −2.1 ± 0.3 in the test on CFTR [2] (setting [5]) and −1.6 ± 0.1 in the test on CFTR [2] (setting [6]). The ΔCFTR-inh172plateau at CFTR [1] (setting [3]) was −3.0 ± 0.2; on CFTR [1] (setting [4]), −0.2 ± 0.2; in the test with CFTR [2] (setting [5]), −2.1 ± 0.3; in the test on CFTR [2] (setting [6]), −1.6 ± 0.1. In addition, the ΔFskpeak is on record as −1.9 ± 0.1 on CFTR [1] (setting [3]), −0.7 ± 0.2 on CFTR [1] (setting [4]), −0.1 ± 0.3 with CFTR [2] (setting [5]) and 1.0 ± 0.3 with CFTR [2] (setting [6]). Moreover, the ΔFskplateau at CFTR [1] (setting [3]) was −1.9 ± 0.1; on CFTR [1] (setting [4]), −0.7 ± 0.2; with CFTR [2] (setting [5]), −0.1 ± 0.3; in the test with CFTR [2] (setting [6]), 1.0 ± 0.3.

(Values after patent US20240024515A1, “COMBINATION TREATMENT” (priority 2022, published 2024).)
